Source: ChEMBL document CHEMBL4190238, “Discovery of potent IDO1 inhibitors derived from tryptophan using scaffold-hopping and structure-based design approaches” (Eur J Med Chem, 2017)
pIC50: −log10 of the molar value. Calls of active or inactive are those of the source. The calls are words filed in the database; no cut-off is given here.

Legend:
[1] = target: T1, Indoleamine 2,3-dioxygenase 1 (Homo sapiens, UniProt P14902); test: Inhibition of IFNgamma-induced IDO1 in human HeLa cells using L-tryptophan as substrate after 24 hrs; format: cell-based
Target sequence in this assay (P14902 whole entry): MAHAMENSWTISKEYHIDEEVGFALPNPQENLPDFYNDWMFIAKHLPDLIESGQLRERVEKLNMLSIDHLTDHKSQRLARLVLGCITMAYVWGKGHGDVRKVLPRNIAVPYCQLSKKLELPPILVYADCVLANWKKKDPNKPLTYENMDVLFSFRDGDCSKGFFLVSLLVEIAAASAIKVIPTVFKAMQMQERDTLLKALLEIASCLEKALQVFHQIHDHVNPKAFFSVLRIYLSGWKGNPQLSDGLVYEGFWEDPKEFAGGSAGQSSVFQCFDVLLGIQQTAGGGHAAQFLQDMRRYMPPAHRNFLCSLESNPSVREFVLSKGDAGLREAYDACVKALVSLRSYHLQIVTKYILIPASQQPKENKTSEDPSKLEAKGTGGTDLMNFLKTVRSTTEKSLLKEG

HeLa [2] = test: Cytotoxicity against human HeLa cells assessed as reduction in cell viability at 10 to 30 uM after 24 hrs by MTT assay; format: cell-based
HeLa [3] = test: Inhibition of IFNgamma-induced IDO1 protein expression in human HeLa cells at IDO1 inhibitory IC50 after 24 hrs by Western blot method; format: functional, cell-based
[4] = target: Indoleamine 2,3-dioxygenase 1 (Mus musculus) (UniProt P28776); test: Inhibition of IDO1 in mouse B16F1 cells co-cultured with Balb/c mouse T-cells assessed as reversal of IDO1-mediated suppression of T-cell proliferation at 30 uM after 48 hrs by MTT assay; format: cell-based
Sequence of Indoleamine 2,3-dioxygenase 1 (Mus musculus) (P28776 whole entry, looked up): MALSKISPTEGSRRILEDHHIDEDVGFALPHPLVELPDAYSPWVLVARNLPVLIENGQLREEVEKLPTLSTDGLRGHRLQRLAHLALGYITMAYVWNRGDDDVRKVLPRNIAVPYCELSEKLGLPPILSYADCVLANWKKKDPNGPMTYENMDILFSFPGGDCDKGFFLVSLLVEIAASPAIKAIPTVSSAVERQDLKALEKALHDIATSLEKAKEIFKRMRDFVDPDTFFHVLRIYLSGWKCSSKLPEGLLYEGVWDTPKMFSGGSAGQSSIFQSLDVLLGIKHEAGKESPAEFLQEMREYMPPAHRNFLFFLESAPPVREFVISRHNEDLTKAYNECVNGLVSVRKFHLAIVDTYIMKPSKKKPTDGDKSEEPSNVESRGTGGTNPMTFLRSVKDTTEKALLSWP

[5] = target: Indoleamine 2,3-dioxygenase 1 (Mus musculus) (UniProt P28776); test: Inhibition of IDO1 in mouse B16F1 cells co-cultured with Balb/c mouse T-cells assessed as increase in IFN-gamma level at 30 uM after 48 hrs by ELISA; format: cell-based
[6] = target: Indoleamine 2,3-dioxygenase 1 (Mus musculus) (UniProt P28776); test: Inhibition of IDO1 in mouse B16F1 cells co-cultured with Balb/c mouse T-cells assessed as decrease in differentiation of Treg cells by measuring CD4+/CD25+/FOXP3 cells at 30 uM by FITC/APC/PE staining based flow cytometry (reference value: 11.7%); format: cell-based; parameters: scale not given: the % may be the effect or the level left
[7] = target: T1, Indoleamine 2,3-dioxygenase 1; test: Binding affinity to recombinant human IDO1 assessed as interaction with ferrous ion in enzyme active site by measuring absorbance maxima for ferrous heme at 2 mM by UV-Visible spectral analysis (reference value: 424 nanometer)
Target sequence in this assay (P14902 whole entry, looked up): as the sequence (P14902 whole entry) above

[8] = target: Indoleamine 2,3-dioxygenase 1 (Mus musculus) (UniProt P28776); test: Inhibition of IDO1 in mouse B16F1 cells co-cultured with Balb/c mouse T-cells assessed as reversal of IDO1-mediated suppression of T-cell proliferation at 1.5 uM after 48 hrs by MTT assay; format: cell-based
[9] = target: Indoleamine 2,3-dioxygenase 1 (Mus musculus) (UniProt P28776); test: Inhibition of IDO1 in mouse B16F1 cells co-cultured with Balb/c mouse T-cells assessed as increase in IFN-gamma level at 1.5 uM after 48 hrs by ELISA; format: cell-based
[10] = target: Indoleamine 2,3-dioxygenase 1 (Mus musculus) (UniProt P28776); test: Inhibition of IDO1 in mouse B16F1 cells co-cultured with Balb/c mouse T-cells assessed as reversal of IDO1-mediated suppression of T-cell proliferation at 18 uM after 48 hrs by MTT assay; format: cell-based
[11] = target: Indoleamine 2,3-dioxygenase 1 (Mus musculus) (UniProt P28776); test: Inhibition of IDO1 in mouse B16F1 cells co-cultured with Balb/c mouse T-cells assessed as increase in IFN-gamma level at 18 uM after 48 hrs by ELISA; format: cell-based
[12] = target: Indoleamine 2,3-dioxygenase 1 (Mus musculus) (UniProt P28776); test: Inhibition of IDO1 in mouse B16F1 cells co-cultured with Balb/c mouse T-cells assessed as decrease in differentiation of Treg cells by measuring CD4+/CD25+/FOXP3 cells at 18 uM by FITC/APC/PE staining based flow cytometry (reference value: 11.7%); format: cell-based; parameters: scale not given: the % may be the effect or the level left

Row | pIC50 [1] | Structure (SMILES) | Activity (HeLa [2]) | other results
1 | 4.00 | O=c1oc2ccc([N+](=O)[O-])cc2n1Cc1ccc(Cl)cc1 | Non-Toxic | 
2 | 4.51 | O=c1oc2ccccc2n1Cc1cccc(F)c1 | Non-Toxic | 
3 | 4.09 | O=c1oc2ccc(F)cc2n1Cc1ccc(Cl)cc1 | Non-Toxic | 
4 | 4.68 | O=C(Cn1c(=O)oc2ccc(Cl)cc21)c1ccc(F)cc1 | Non-Toxic | 
5 | 4.84 | COc1cccc(CNC(=O)n2c(=O)oc3ccc(Cl)cc32)c1 | Non-Toxic | 
6 | 4.55 | O=c1oc2ccc(F)cc2n1Cc1cccc(F)c1 | Non-Toxic | 
7 | 4.22 | O=c1oc2ccc(Cl)cc2n1CC(O)c1cccc(Cl)c1 (stereo not drawn) | Non-Toxic | 
8 | 4.00 | O=c1oc2ccc([N+](=O)[O-])cc2n1Cc1cccc(F)c1 | Non-Toxic | 
9 | 4.99 | O=c1oc2ccc(Cl)cc2n1CC(O)c1ccc(F)cc1 (stereo not drawn) | Non-Toxic | 
10 | 5.01 | O=c1oc2ccc(Cl)cc2n1Cc1cccc(F)c1 | Non-Toxic | inhibition (HeLa [3]): inactive; inhibition [4]: Active; inhibition [5]: Active; Activity [6]: 6%; Activity [7]: 418 nm
11 | 4.27 | O=C(Cn1c(=O)oc2ccccc21)c1ccc(F)cc1 | Non-Toxic | 
12 | 4.46 | O=c1oc2ccccc2n1Cc1ccc(Cl)cc1 | Non-Toxic | 
13 | 5.19 | O=C(Cc1ccc(F)cc1)n1c(=O)oc2ccc(Cl)cc21 | Non-Toxic | inhibition (HeLa [3]): inactive; inhibition [10]: Active; inhibition [11]: Active; Activity [12]: 7.1%
14 | < 4.00 | Nc1ccc2oc(=O)n(Cc3cccc(F)c3)c2c1 | Non-Toxic | 
15 | 4.12 | O=C(Cn1c(=O)oc2ccc(Cl)cc21)c1cccc(Cl)c1 | Non-Toxic | 
16 | 4.75 | O=c1oc2ccc(Cl)cc2n1CCc1ccccc1 | Non-Toxic | 
17 | 5.22 | O=c1oc2ccc(Cl)cc2n1Cc1ccc(Cl)cc1 | Non-Toxic | inhibition (HeLa [3]): inactive; inhibition [10]: 52%; inhibition [11]: Active; Activity [12]: 8.7%; Activity [7]: 418 nm

The next lines start with the molecule.

Row | Structure (SMILES) | pIC50 [1] | Activity (HeLa [2]) | other results
18 | O=c1oc2ccccc2n1CCc1ccccc1 | < 4.00 | Non-Toxic | 
19 | O=c1oc2ccc(Cl)cc2n1CC(O)c1ccc(Cl)cc1 (stereo not drawn) | 4.20 | Non-Toxic | 
20 | O=c1oc2ccccc2n1CC(O)c1cccc(Cl)c1 (stereo not drawn) | 4.09 | Non-Toxic | 
21 | O=c1oc2ccccc2n1CC(O)c1ccc(F)cc1 (stereo not drawn) | 4.31 | Non-Toxic | 
22 | COc1ccc(NC(=O)n2c(=O)oc3ccc(Cl)cc32)cc1 | < 4.00 | Non-Toxic | 
23 | O=c1[nH]c2ccccc2n1CC(O)c1ccc(F)cc1 (stereo not drawn) | 4.00 | Non-Toxic | 
24 | O=c1oc2ccccc2n1CC(O)c1ccc(Cl)cc1 (stereo not drawn) | 4.29 | Non-Toxic | 
25 | O=C(Cc1ccc(F)cc1)n1c(=O)oc2ccccc21 | < 4.00 | Non-Toxic | 
26 | O=C(c1ccccc1)n1c(=O)oc2ccccc21 | 4.04 | Non-Toxic | 
27 | OC(CC1c2ccccc2-c2cncn21)C1CCCCC1 (racemic) |  |  | inhibition [8]: Active; inhibition [9]: Active
28 | Nc1nc2ccccc2n1C(=O)Cc1ccc(F)cc1 | 4.64 | Non-Toxic | 
29 | O=C(Cn1c(=O)oc2ccccc21)c1cccc(Cl)c1 | 4.31 | Non-Toxic | 
30 | O=C(Cn1c(=O)oc2ccccc21)c1ccc(Cl)cc1 | 4.41 | Non-Toxic | 
31 | COc1ccc(CNC(=O)n2c(=O)oc3ccccc32)cc1 | 4.50 | Non-Toxic | 
32 | O=C(Cn1c(=O)oc2ccc(Cl)cc21)c1ccc(Cl)cc1 | 4.60 | Non-Toxic | 
